US12162820B2 (TAIWANJ PHARMACEUTICALS CO., LTD., priority 2019, dated 2024)

Assays:
Type in all cases: biochemical
ATX (autotaxin) = molecular target: T1, ATX (autotaxin) (Homo sapiens, UniProt Q13822); assay: Autotaxin Inhibition Screening Assay (choline release from LPC, LPC-CR); conditions: for inhibition at 4 µM: 4 μM compound; for inhibition at 20 µM: 20 μM compound; for inhibition at 50 µM: 50 μM compound
T1 construct: purchased Cayman 10803
In short: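 Released choline from 100 μM 14:0 LPC, detected via choline oxidase–HRP–homovanillic acid fluorescence (320/450 nm) kinetically over 90 min, reports activity of 20 ng ATX. Buffer: 50 mM Tris pH 8.0, 50 mM CaCl2, 0.01% Triton X-100; test compounds 4, 20, 50 μM; percent inhibition from blank-subtracted slopes relative to vehicle.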

HDAC3 = molecular target: T2, HDAC3 (Homo sapiens, UniProt O15379); assay: HDAC Inhibition Screening Assay (FLUOR DE LYS Fluorimetric Drug Discovery Kit), HDAC3; conditions: for inhibition at 2 µM: 2 μM compound; for inhibition at 10 µM: 10 μM compound; for inhibition at 50 µM: 50 μM compound
T2 construct: purchased Enzo Life Sciences
In short: (§1)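 Recombinant HDAC1, HDAC2 or HDAC3 was incubated with an acetyl-lysine fluorogenic substrate, and a developer was then added to release the fluorophore. Compounds were tested at 2, 10 and 50 μM, with fluorescence read at 360 or 485 nm excitation and 460 or 530 nm emission. Activity was expressed as a percentage of basal control minus baseline.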

HDAC1 = molecular target: T3, HDAC1 (Homo sapiens, UniProt Q13547); assay: HDAC Inhibition Screening Assay (FLUOR DE LYS Fluorimetric Drug Discovery Kit), HDAC1; conditions: for inhibition at 2 µM: 2 μM compound; for inhibition at 10 µM: 10 μM compound; for inhibition at 50 µM: 50 μM compound
T3 construct: purchased Enzo Life Sciences
In short: as §1

HDAC2 = molecular target: T4, HDAC2 (Homo sapiens, UniProt Q92769); assay: HDAC Inhibition Screening Assay (FLUOR DE LYS Fluorimetric Drug Discovery Kit), HDAC2; conditions: for inhibition at 2 µM: 2 μM compound; for inhibition at 10 µM: 10 μM compound; for inhibition at 50 µM: 50 μM compound
T4 construct: purchased Enzo Life Sciences
In short: as §1

T4 sequence (Q92769 whole entry): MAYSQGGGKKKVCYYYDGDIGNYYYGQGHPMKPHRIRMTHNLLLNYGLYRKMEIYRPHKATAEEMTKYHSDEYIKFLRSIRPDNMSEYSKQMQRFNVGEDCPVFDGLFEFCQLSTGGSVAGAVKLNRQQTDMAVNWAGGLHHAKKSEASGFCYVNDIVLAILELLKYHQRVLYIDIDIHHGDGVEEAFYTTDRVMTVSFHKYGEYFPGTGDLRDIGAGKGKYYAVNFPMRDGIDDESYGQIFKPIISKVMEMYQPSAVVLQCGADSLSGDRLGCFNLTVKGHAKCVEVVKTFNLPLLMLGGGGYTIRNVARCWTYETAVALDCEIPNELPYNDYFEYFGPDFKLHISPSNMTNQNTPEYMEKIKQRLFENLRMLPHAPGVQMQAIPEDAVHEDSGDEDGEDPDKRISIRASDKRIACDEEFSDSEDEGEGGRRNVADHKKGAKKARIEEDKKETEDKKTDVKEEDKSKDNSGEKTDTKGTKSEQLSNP
T2 sequence (O15379 whole entry): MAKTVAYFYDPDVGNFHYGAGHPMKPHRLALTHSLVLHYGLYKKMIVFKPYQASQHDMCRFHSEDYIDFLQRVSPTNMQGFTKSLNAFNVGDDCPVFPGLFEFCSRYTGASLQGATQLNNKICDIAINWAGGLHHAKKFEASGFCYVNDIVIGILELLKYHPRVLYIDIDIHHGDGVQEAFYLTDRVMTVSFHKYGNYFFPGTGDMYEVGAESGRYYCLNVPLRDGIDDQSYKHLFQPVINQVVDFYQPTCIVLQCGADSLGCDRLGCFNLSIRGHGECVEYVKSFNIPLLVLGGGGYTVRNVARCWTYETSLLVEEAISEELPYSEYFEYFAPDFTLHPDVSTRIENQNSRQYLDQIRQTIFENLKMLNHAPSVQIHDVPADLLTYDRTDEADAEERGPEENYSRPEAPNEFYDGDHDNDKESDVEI
T2 sequence (O75376 395-489 partner limits assumed): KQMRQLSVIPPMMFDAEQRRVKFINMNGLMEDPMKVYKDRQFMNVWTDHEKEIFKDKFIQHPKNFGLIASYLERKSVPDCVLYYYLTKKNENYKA
T3 sequence (Q13547 whole entry): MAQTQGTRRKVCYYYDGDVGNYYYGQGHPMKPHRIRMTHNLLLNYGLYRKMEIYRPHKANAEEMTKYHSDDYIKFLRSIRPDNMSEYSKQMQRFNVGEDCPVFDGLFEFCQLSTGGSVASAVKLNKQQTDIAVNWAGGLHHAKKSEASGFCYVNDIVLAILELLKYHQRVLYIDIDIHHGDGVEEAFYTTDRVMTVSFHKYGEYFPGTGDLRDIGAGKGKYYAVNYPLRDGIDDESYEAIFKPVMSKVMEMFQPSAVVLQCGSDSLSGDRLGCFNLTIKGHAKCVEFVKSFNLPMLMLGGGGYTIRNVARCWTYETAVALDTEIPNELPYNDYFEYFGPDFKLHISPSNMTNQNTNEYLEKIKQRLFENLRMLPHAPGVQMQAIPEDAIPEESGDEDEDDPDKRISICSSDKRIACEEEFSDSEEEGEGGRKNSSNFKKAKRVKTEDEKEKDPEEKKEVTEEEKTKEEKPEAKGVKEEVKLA

inhibition at 4 µM (ATX (autotaxin)) | inhibition at 20 µM (ATX (autotaxin)) | inhibition at 50 µM (ATX (autotaxin)) | inhibition at 2 µM (HDAC3) | inhibition at 10 µM (HDAC3) | inhibition at 50 µM (HDAC3) | inhibition at 2 µM (HDAC1) | inhibition at 10 µM (HDAC1) | inhibition at 50 µM (HDAC1) | inhibition at 2 µM (HDAC2) | inhibition at 10 µM (HDAC2) | inhibition at 50 µM (HDAC2) | SMILES
< 50% | < 50% | < 50% | > 80% | > 80% | > 80% | > 80% | > 80% | > 80% | > 80% | > 80% | > 80% | Cc1[nH]c2ccccc2c1CCNC1CCc2cc(/C=C/C(=O)NO)ccc21 (stereo not drawn) [Compound 60, (E)-N-hydroxy-3-(1-((2-(2-methyl-1H-indol-3-yl)ethyl)amino)-2,3-dihydro-1H-inden-5-yl)acryl amide]
> 80% | > 80% | > 80% | < 50% | 50 to 80% | > 80% | < 50% | 50 to 80% | > 80% | 50 to 80% | > 80% | > 80% | CN(C(=O)OCc1cc(C(F)(F)F)cc(C(F)(F)F)c1)C1CCc2ccc(/C=C/C(=O)NO)cc21 (stereo not drawn) [Compound 65, 3,5-bis(trifluoromethyl)benzyl (E)-(6-(3-(hydroxyamino)-3-oxoprop-1-en-1-yl)-2,3-dihydro-1H-inden-1-yl)(methyl)carbamate]
< 50% | < 50% | < 50% | > 80% | > 80% | > 80% | > 80% | > 80% | > 80% | > 80% | > 80% | > 80% | O=C(CCCCCCC(=O)Nc1ccc2c(c1)CCC/C2=N\O)NO [Compound 3, (E)-N1-hydroxy-N8-(5-(hydroxyimino)-5,6,7,8-tetrahydronaphthalen-2-yl)octanediamide]
